Reference: the NIST ThermoML archive (doi:10.1016/j.fluid.2005.03.030)

Assay: xn = mol fraction of the nth substance listed
Conditions: Liquid, Falling body viscometer

COCCOCCOCCOCCOC [2,5,8,11,14-pentaoxapentadecane] + FCC(F)(F)F
viscosity [mPa·s]
Conditions | 10000 kPa | 20000 kPa | 30000 kPa | 40000 kPa | 50000 kPa | 60000 kPa | 70000 kPa | 80000 kPa | 90000 kPa | 100000 kPa
293.15 K, x2 = 0.2769 | 3.132 | 3.378 | 3.669 | 3.992 | 4.341 | 4.71 | 5.095 | 5.495 | 5.907 | 6.329
293.15 K, x2 = 0.4433 | 2.335 | 2.537 | 2.765 | 3.014 | 3.282 | 3.568 | 3.871 | 4.191 | 4.527 | 4.877
293.15 K, x2 = 0.6333 | 1.514 | 1.679 | 1.851 | 2.031 | 2.219 | 2.414 | 2.617 | 2.827 | 3.045 | 3.269
293.15 K, x2 = 0.8797 | 0.557 | 0.613 | 0.671 | 0.733 | 0.796 | 0.863 | 0.932 | 1.003 | 1.077 | 1.154
313.15 K, x2 = 0.2769 | 2.001 | 2.197 | 2.395 | 2.601 | 2.816 | 3.043 | 3.282 | 3.535 | 3.803 | 4.088
313.15 K, x2 = 0.4433 | 1.527 | 1.674 | 1.824 | 1.978 | 2.14 | 2.31 | 2.49 | 2.68 | 2.881 | 3.094
313.15 K, x2 = 0.6333 | 1.046 | 1.151 | 1.26 | 1.374 | 1.493 | 1.616 | 1.745 | 1.878 | 2.016 | 2.159
313.15 K, x2 = 0.8797 | 0.412 | 0.46 | 0.506 | 0.553 | 0.6 | 0.647 | 0.695 | 0.744 | 0.794 | 0.845
333.15 K, x2 = 0.2769 | 1.406 | 1.533 | 1.664 | 1.8 | 1.941 | 2.086 | 2.236 | 2.391 | 2.549 | 2.712
333.15 K, x2 = 0.4433 | 1.097 | 1.195 | 1.297 | 1.402 | 1.512 | 1.624 | 1.741 | 1.861 | 1.984 | 2.111
333.15 K, x2 = 0.6333 | 0.774 | 0.845 | 0.922 | 1.003 | 1.087 | 1.173 | 1.26 | 1.349 | 1.438 | 1.529
333.15 K, x2 = 0.8797 | 0.321 | 0.364 | 0.405 | 0.444 | 0.483 | 0.522 | 0.561 | 0.6 | 0.64 | 0.681
353.15 K, x2 = 0.2769 | 1.038 | 1.133 | 1.229 | 1.328 | 1.431 | 1.539 | 1.653 | 1.773 | 1.9 | 2.035
353.15 K, x2 = 0.4433 | 0.834 | 0.908 | 0.984 | 1.064 | 1.147 | 1.233 | 1.323 | 1.415 | 1.51 | 1.609
353.15 K, x2 = 0.6333 | 0.609 | 0.665 | 0.725 | 0.788 | 0.854 | 0.921 | 0.99 | 1.061 | 1.132 | 1.205
353.15 K, x2 = 0.8797 | 0.256 | 0.299 | 0.336 | 0.37 | 0.404 | 0.436 | 0.469 | 0.501 | 0.533 | 0.565
373.15 K, x2 = 0.2769 | 0.832 | 0.907 | 0.986 | 1.069 | 1.156 | 1.247 | 1.342 | 1.441 | 1.545 | 1.654
373.15 K, x2 = 0.4433 | 0.662 | 0.72 | 0.783 | 0.85 | 0.921 | 0.994 | 1.069 | 1.147 | 1.226 | 1.307
373.15 K, x2 = 0.6333 | 0.471 | 0.524 | 0.577 | 0.631 | 0.685 | 0.739 | 0.794 | 0.849 | 0.904 | 0.96
373.15 K, x2 = 0.8797 | 0.195 | 0.234 | 0.268 | 0.3 | 0.33 | 0.36 | 0.39 | 0.419 | 0.448 | 0.478
